Test results published in publication PMC5999115, “Anti-tumor activity of phenoxybenzamine and its inhibition of histone deacetylases” (PLoS ONE, 2018).

What was measured:
Test in all cases: Oncotest CellTiter-Blue cell viability assay, 72 hours
Type in all cases: cell-based, human
CNXF U-251 = test system: CNXF U-251
Method: (§1) Further studies with varying drug concentrations on selected human cell lines, in most cases those studied in the NCI60 screen, were conducted by Oncotest GmbH laboratories, Freiburg, Germany; Oncotest is a division of Charles River Laboratories. The dissolution procedure for PBZ and the cell culture […] was 72 hours; anti-tumor activity was determined with the CellTiter-Blue® Cell Viability Assay, Promega, Mannheim, Germany. The 50% Inhibitory (IC50) concentrations were determined. The results are the average of duplicate assays. Paclitaxel was included as a reference compound to confirm the integrity of the assays. See S1 Appendix for further details.
(§2) “Cell lines were routinely passaged once or twice weekly and maintained in culture for up to 20 passages. Cells were grown at 37°C in a humidified atmosphere with 5% CO2 in RPMI 1640 medium (25 mM HEPES, with L-glutamine, #FG1385, Biochrom, Berlin, Germany) supplemented with 10% (v/v) fetal calf serum (Sigma, Taufkirchen, Germany) and 0.1 mg/mL gentamicin (Life Technologies, Karlsruhe, Germany).”

LXFA NCI-H522 = test system: LXFA NCI-H522
Method: as §1, §2

LYXF DLBC SU-DHL-1 = test system: LYXF DLBC SU-DHL-1
Method: as §1, §2

MAXF T47D = test system: MAXF T47D
Method: as §1, §2

[1] = CNXF U-251, 1% FCS, study P495C
[2] = CNXF U-251, 10% FCS, study P495A
[3] = LXFA NCI-H522, 1% FCS, study P495C
[4] = LXFA NCI-H522, 10% FCS, study P495A
[5] = LXFA NCI-H522, 10% FCS, study P495B
[6] = LYXF SU-DHL-1, 1% FCS, study P495C
[7] = LYXF SU-DHL-1, 10% FCS, study P495B

Q: What does the source list for `CC(COc1ccccc1)N(CCCl)Cc1ccccc1` (stereo not shown) [PBZ, phenoxybenzamine]?
A: Test/Control (%) at Drug Concentration [uM] 1,0E+00 (CNXF U-251; [1]): 98%; Test/Control (%) at Drug Concentration [uM] 1,0E+01 (CNXF U-251; [1]): 102%; Test/Control (%) at Drug Concentration [uM] 1,0E+02 (CNXF U-251; [1]): 36%; Test/Control (%) at Drug Concentration [uM] 3,2E+00 (CNXF U-251; [1]): 102%; Test/Control (%) at Drug Concentration [uM] 3,2E+01 (CNXF U-251; [1]): 98%; Test/Control (%) at Drug Concentration [uM] 1,0E+00 (CNXF U-251; [2]): 92%; Test/Control (%) at Drug Concentration [uM] 1,0E+01 (CNXF U-251; [2]): 103%; Test/Control (%) at Drug Concentration [uM] 1,0E+02 (CNXF U-251; [2]): 98%; Test/Control (%) at Drug Concentration [uM] 1,0E-01 (CNXF U-251; [2]): 90%; Test/Control (%) at Drug Concentration [uM] 1,0E-02 (CNXF U-251; [2]): 90%; Test/Control (%) at Drug Concentration [uM] 3,2E+00 (CNXF U-251; [2]): 94%; Test/Control (%) at Drug Concentration [uM] 3,2E+01 (CNXF U-251; [2]): 118%; Test/Control (%) at Drug Concentration [uM] 3,2E-01 (CNXF U-251; [2]): 93%; Test/Control (%) at Drug Concentration [uM] 3,2E-02 (CNXF U-251; [2]): 93%; Test/Control (%) at Drug Concentration [uM] 3,2E-03 (CNXF U-251; [2]): 85%; IC50 (CNXF U-251; Homo sapiens, CNXF U-251 CNS, 1% FCS): 83.1 µM; Percent cell growth in Oncotest screen with 10% FCS (72 hr incubation) (LXFA NCI-H522; 10 μM phenoxybenzamine, NCI-H522): 108%; IC50 (LXFA NCI-H522; Homo sapiens, LXFA NCI-H522 Non-small-cell lung, 1% FCS): 51.5 µM; Test/Control (%) at Drug Concentration [uM] 1,0E+00 (LXFA NCI-H522; [3]): 99%; Test/Control (%) at Drug Concentration [uM] 1,0E+01 (LXFA NCI-H522; [3]): 99%; Test/Control (%) at Drug Concentration [uM] 1,0E+02 (LXFA NCI-H522; [3]): 6%; Test/Control (%) at Drug Concentration [uM] 3,2E+00 (LXFA NCI-H522; [3]): 106%; Test/Control (%) at Drug Concentration [uM] 3,2E+01 (LXFA NCI-H522; [3]): 89%; Test/Control (%) at Drug Concentration [uM] 1,0E+00 (LXFA NCI-H522; [4]): 99%; Test/Control (%) at Drug Concentration [uM] 1,0E+01 (LXFA NCI-H522; [4]): 108%; Test/Control (%) at Drug Concentration [uM] 1,0E+02 (LXFA NCI-H522; [4]): 14%; Test/Control (%) at Drug Concentration [uM] 1,0E-01 (LXFA NCI-H522; [4]): 96%; Test/Control (%) at Drug Concentration [uM] 1,0E-02 (LXFA NCI-H522; [4]): 81%; Test/Control (%) at Drug Concentration [uM] 3,2E+00 (LXFA NCI-H522; [4]): 107%; Test/Control (%) at Drug Concentration [uM] 3,2E+01 (LXFA NCI-H522; [4]): 110%; Test/Control (%) at Drug Concentration [uM] 3,2E-01 (LXFA NCI-H522; [4]): 98%; Test/Control (%) at Drug Concentration [uM] 3,2E-02 (LXFA NCI-H522; [4]): 82%; Test/Control (%) at Drug Concentration [uM] 3,2E-03 (LXFA NCI-H522; [4]): 76%; Test/Control (%) at Drug Concentration [uM] 1,0E+00 (LXFA NCI-H522; [5]): 100%; Test/Control (%) at Drug Concentration [uM] 1,0E+01 (LXFA NCI-H522; [5]): 93%; Test/Control (%) at Drug Concentration [uM] 1,0E+02 (LXFA NCI-H522; [5]): 29%; Test/Control (%) at Drug Concentration [uM] 1,0E-01 (LXFA NCI-H522; [5]): 100%; Test/Control (%) at Drug Concentration [uM] 1,0E-02 (LXFA NCI-H522; [5]): 100%; Test/Control (%) at Drug Concentration [uM] 1,0E-03 (LXFA NCI-H522; [5]): 100%; Test/Control (%) at Drug Concentration [uM] 3,2E+00 (LXFA NCI-H522; [5]): 100%; Test/Control (%) at Drug Concentration [uM] 3,2E+01 (LXFA NCI-H522; [5]): 97%; IC50 (LYXF DLBC SU-DHL-1; Homo sapiens, LYXFDLBC SU-DHL-1 Lymphoma, 1% FCS): 29.5 µM; Test/Control (%) at Drug Concentration [uM] 1,0E+00 (LYXF DLBC SU-DHL-1; [6]): 97%; Test/Control (%) at Drug Concentration [uM] 1,0E+01 (LYXF DLBC SU-DHL-1; [6]): 91%; Test/Control (%) at Drug Concentration [uM] 1,0E+02 (LYXF DLBC SU-DHL-1; [6]): 7%; Test/Control (%) at Drug Concentration [uM] 3,2E+00 (LYXF DLBC SU-DHL-1; [6]): 96%; Test/Control (%) at Drug Concentration [uM] 3,2E+01 (LYXF DLBC SU-DHL-1; [6]): 45%; Test/Control (%) at Drug Concentration [uM] 1,0E+00 (LYXF DLBC SU-DHL-1; [7]): 98%; Test/Control (%) at Drug Concentration [uM] 1,0E+01 (LYXF DLBC SU-DHL-1; [7]): 100%; Test/Control (%) at Drug Concentration [uM] 1,0E+02 (LYXF DLBC SU-DHL-1; [7]): 0%; Test/Control (%) at Drug Concentration [uM] 1,0E-01 (LYXF DLBC SU-DHL-1; [7]): 100%; Test/Control (%) at Drug Concentration [uM] 1,0E-02 (LYXF DLBC SU-DHL-1; [7]): 100%; Test/Control (%) at Drug Concentration [uM] 1,0E-03 (LYXF DLBC SU-DHL-1; [7]): 100%; Test/Control (%) at Drug Concentration [uM] 3,2E+00 (LYXF DLBC SU-DHL-1; [7]): 100%; Test/Control (%) at Drug Concentration [uM] 3,2E+01 (LYXF DLBC SU-DHL-1; [7]): 94%; Percent cell growth in Oncotest screen with 10% FCS (72 hr incubation) (MAXF T47D; 10 μM phenoxybenzamine, T47D): 97%; IC50 (MAXF T47D; Homo sapiens, MAXF T47D Mammary, 1% FCS): 83.4 µM; Test/Control (%) at Drug Concentration [uM] 1,0E+00 (MAXF T47D; MAX T47D, 1% FCS, study P495C): 98%; Test/Control (%) at Drug Concentration [uM] 1,0E+01 (MAXF T47D; MAX T47D, 1% FCS, study P495C): 96%; Test/Control (%) at Drug Concentration [uM] 1,0E+02 (MAXF T47D; MAX T47D, 1% FCS, study P495C): 37%; Test/Control (%) at Drug Concentration [uM] 3,2E+00 (MAXF T47D; MAX T47D, 1% FCS, study P495C): 99%
